# Experimental data published in patent US8952024B2, “Herbicidal pyrimidone derivatives” (E I du Pont de Nemours and Company, priority 2009, dated 2015).
# Legend:
# Assay type in all cases: in vivo
# [1] = test system: canarygrass (Phalaris minor); assay: Test B postemergence plant response; conditions: for Canarygrass plant response rating (0 to 100 scale): 62 g ai/ha, 0 is no effect, 13 to 15 days
# Summary of the method: (§1)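 Plants grown in peat/vermiculite medium were sprayed postemergence at 2–18 cm height (1- to 4-leaf stage). After 13–15 days in the greenhouse, response was rated visually against untreated controls on a 0–100 scale (0 no effect, 100 complete control).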
# [2] = test system: windgrass (Apera spica-venti); assay: Test B postemergence plant response; conditions: for Windgrass plant response rating (0 to 100 scale): 62 g ai/ha, 0 is no effect, 13 to 15 days
# Summary of the method: as §1
# [3] = test system: chickweed (Stellaria media); assay: Test B postemergence plant response; conditions: for Chickweed plant response rating (0 to 100 scale): 62 g ai/ha, 0 is no effect, 13 to 15 days
# Summary of the method: as §1
# [4] = test system: Surinam grass (Brachiaria decumbens); assay: Test B pre-/postemergence plant response
# Summary of the method: (§2)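 Test compounds, formulated in a non-phytotoxic solvent mixture with surfactant, are applied to the soil surface (loam and sand blend) right after seeding, or sprayed over plants at the 1- to 4-leaf stage grown in peat moss/vermiculite medium. After 13 to 15 days under glasshouse conditions, each species is scored visually from 0 (no effect) to 100 (complete control) against controls.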
# [5] = test system: wheat (Triticum aestivum); assay: Test B pre-/postemergence plant response; conditions: for Wheat plant response rating (0 to 100 scale): 0 is no effect, 13 to 15 days
# Summary of the method: as §2
# kochia (Kochia scoparia) = assay: Test B pre-/postemergence plant response; conditions: for Kochia plant response rating (0 to 100 scale): 62 g ai/ha, 0 is no effect, 13 to 15 days
# Summary of the method: as §2
# [6] = test system: blackgrass (Alopecurus myosuroides); assay: Test B pre-/postemergence plant response; conditions: for Blackgrass plant response rating (0 to 100 scale): 0 is no effect, 13 to 15 days
# Summary of the method: as §2
# [7] = test system: cocklebur (Xanthium strumarium); assay: Test B pre-/postemergence plant response; conditions: for Cocklebur plant response rating (0 to 100 scale): 0 is no effect, 13 to 15 days
# Summary of the method: as §2
# [8] = test system: lambsquarters (Chenopodium album); assay: Test B pre-/postemergence plant response; conditions: for Lambsquarters plant response rating (0 to 100 scale): 0 is no effect, 13 to 15 days
# Summary of the method: as §2
# wild oat (Avena fatua) = assay: Test B pre-/postemergence plant response; conditions: for Oat, Wild plant response rating (0 to 100 scale): 0 is no effect, 13 to 15 days
# Summary of the method: as §2
# [9] = test system: velvetleaf (Abutilon theophrasti); assay: Test B pre-/postemergence plant response; conditions: for Velvetleaf plant response rating (0 to 100 scale): 0 is no effect, 13 to 15 days
# Summary of the method: as §2
# [10] = test system: pigweed (Amaranthus retroflexus); assay: Test B pre-/postemergence plant response; conditions: for Pigweed plant response rating (0 to 100 scale): 0 is no effect, 13 to 15 days
# Summary of the method: as §2
# soybean (Glycine max) = assay: Test B pre-/postemergence plant response; conditions: for Soybean plant response rating (0 to 100 scale): 62 g ai/ha, 0 is no effect, 13 to 15 days
# Summary of the method: as §2
# [11] = 31 g ai/ha, postemergence, scale 0 to 100, 0 is no effect, 100 is complete control
# [12] = postemergence, 100 is complete control
# [13] = Postemergence, 125 g ai/ha, scale 0 to 100 (0 no effect, 100 complete control)
# [14] = Postemergence, 250 g ai/ha, scale 0 to 100 (0 no effect, 100 complete control)
# [15] = 62 g ai/ha, postemergence, 100 is complete control
# [16] = Postemergence, 125 g ai/ha, visual rating after 13 to 15 days, scale 0 (no effect) to 100 (complete control)
# [17] = Preemergence, 31 g ai/ha, scale 0 to 100 (0 no effect, 100 complete control)
# [18] = Preemergence, 62 g ai/ha, scale 0 to 100 (0 no effect, 100 complete control)
# [19] = Preemergence, 125 g ai/ha, scale 0 to 100, 0 no effect, 100 complete control
# [20] = Preemergence, 250 g ai/ha, 0 to 100 scale
smiles,measurement,setting,value
"COCCCn1c(-c2cccc(C)c2)ncc(C(=O)C2=C(O)CCCC2=O)c1=O [Compound 118, 5-[(2-hydroxy-6-oxo-1-cyclohexane-1-yl)carbonyl]-3-(3-methoxypropyl)-2-(3-methylphenyl)-4(3H)-pyrimidinone]","Plant response rating, Canarygrass",[1]; [11],0
same,Canarygrass plant response rating (0 to 100 scale),[1]; [12],0
same,"Plant response rating, Canarygrass",[1]; [13],10
same,"Plant response rating, Canarygrass",[1]; [14],15
same,Windgrass plant response rating (0 to 100 scale),[2]; [12],60
same,"Plant response rating, Windgrass",[2]; [13],70
same,"Plant response rating, Chickweed",[3]; [11],90
same,Chickweed plant response rating (0 to 100 scale),[3]; [12],95
same,"Plant response rating, Chickweed",[3]; [13],95
same,"Plant response rating, Chickweed",[3]; [14],100
same,"Plant response rating, Surinam Grass",[4]; [13],75
same,"Plant response rating, Surinam Grass",[4]; [14],90
same,Wheat plant response rating (0 to 100 scale),[5]; [15],5
same,"Plant response rating, Wheat",[5]; [13],5
same,"Plant response rating, Kochia",kochia (Kochia scoparia); [11],45
same,Kochia plant response rating (0 to 100 scale),kochia (Kochia scoparia); [12],65
same,"Plant response rating, Kochia",kochia (Kochia scoparia); [13],70
same,"Plant response rating, Kochia",kochia (Kochia scoparia); [14],98
same,"Plant response rating, Blackgrass",[6]; [11],5
same,Blackgrass plant response rating (0 to 100 scale),[6]; [15],10
same,"Plant response rating, Blackgrass",[6]; [13],35
same,"Plant response rating, Blackgrass",[6]; [14],40
same,"Plant response rating, Cocklebur",[7]; [11],40
same,Cocklebur plant response rating (0 to 100 scale),[7]; [15],40
same,"Plant response rating, Cocklebur",[7]; [13],85
same,"Plant response rating, Cocklebur",[7]; [14],98
same,"Plant response rating, Lambsquarters",[8]; [11],85
same,Lambsquarters plant response rating (0 to 100 scale),[8]; [15],98
same,"Plant response rating, Lambsquarters",[8]; [13],100
same,"Plant response rating, Lambsquarters",[8]; [14],100
same,"Plant response rating, Oat, Wild",wild oat (Avena fatua); [11],5
same,"Oat, Wild plant response rating (0 to 100 scale)",wild oat (Avena fatua); [15],5
same,"Plant response rating, Oat, Wild",wild oat (Avena fatua); [13],10
same,"Plant response rating, Oat, Wild",wild oat (Avena fatua); [14],40
same,Velvetleaf plant response rating (0 to 100 scale),[9]; [15],75
same,"Plant response rating, Velvetleaf",[9]; [13],98
same,"Plant response rating, Velvetleaf",[9]; [14],100
same,"Plant response rating, Pigweed",[10]; [11],85
same,Pigweed plant response rating (0 to 100 scale),[10]; [15],100
same,"Plant response rating, Pigweed",[10]; [13],100
same,"Plant response rating, Pigweed",[10]; [14],100
same,Soybean plant response rating (0 to 100 scale),soybean (Glycine max); [12],90
same,"Plant response rating, Soybean",soybean (Glycine max); [13],95
same,"Plant response rating, Soybean",soybean (Glycine max); [14],100
CCCc1ncc(C(=O)C2=C(O)CCCC2=O)c(=O)n1CC1CCCO1 (centres unmarked) [Compound 74],"Plant response rating, Canarygrass",[1]; [11],0
same,Canarygrass plant response rating (0 to 100 scale),[1]; [12],0
same,"Plant response rating, Canarygrass",[1]; [16],0
same,"Plant response rating, Canarygrass",[1]; [14],0
same,"Plant response rating, Windgrass",[2]; [11],5
same,Windgrass plant response rating (0 to 100 scale),[2]; [12],60
same,"Plant response rating, Windgrass",[2]; [16],80
same,"Plant response rating, Windgrass",[2]; [14],95
same,"Plant response rating, Chickweed",[3]; [11],75
same,Chickweed plant response rating (0 to 100 scale),[3]; [12],85
same,"Plant response rating, Chickweed",[3]; [16],95
same,"Plant response rating, Chickweed",[3]; [14],100
same,"Plant response rating, Surinam Grass",[4]; [11],20
same,Surinam Grass plant response rating (0 to 100 scale),"[4]; 62 g ai/ha, postemergence, 0 is no effect, 100 is complete control, 13 to 15 days",45
same,"Plant response rating, Surinam Grass",[4]; [16],65
same,"Plant response rating, Surinam Grass",[4]; [14],75
same,"Plant response rating, Surinam Grass",[4]; [17],0
same,"Plant response rating, Surinam Grass",[4]; [18],80
same,"Plant response rating, Surinam Grass",[4]; [19],85
same,Surinam Grass plant response rating,[4]; [20],95
same,"Plant response rating, Wheat",[5]; [11],5
same,Wheat plant response rating (0 to 100 scale),[5]; [15],5
same,"Plant response rating, Wheat",[5]; [16],30
same,"Plant response rating, Wheat",[5]; [14],50
same,"Plant response rating, Wheat",[5]; [17],0
same,"Plant response rating, Wheat",[5]; [18],0
same,"Plant response rating, Wheat",[5]; [19],0
same,Wheat plant response rating,[5]; [20],0
same,"Plant response rating, Kochia",kochia (Kochia scoparia); [11],75
same,Kochia plant response rating (0 to 100 scale),kochia (Kochia scoparia); [12],75
same,"Plant response rating, Kochia",kochia (Kochia scoparia); [16],95
same,"Plant response rating, Kochia",kochia (Kochia scoparia); [14],98
same,"Plant response rating, Kochia",kochia (Kochia scoparia); [17],80
same,"Plant response rating, Kochia",kochia (Kochia scoparia); [19],85
same,Kochia plant response rating,kochia (Kochia scoparia); [20],85
same,"Plant response rating, Blackgrass",[6]; [11],0
same,Blackgrass plant response rating (0 to 100 scale),[6]; [15],0
same,"Plant response rating, Blackgrass",[6]; [16],25
same,"Plant response rating, Blackgrass",[6]; [14],45
same,"Plant response rating, Blackgrass",[6]; [17],0
same,"Plant response rating, Blackgrass",[6]; [18],0
same,"Plant response rating, Blackgrass",[6]; [19],0
same,Blackgrass plant response rating,[6]; [20],10
same,"Plant response rating, Cocklebur",[7]; [11],20
same,Cocklebur plant response rating (0 to 100 scale),[7]; [15],85
same,"Plant response rating, Cocklebur",[7]; [16],90
same,"Plant response rating, Cocklebur",[7]; [14],95
same,"Plant response rating, Cocklebur",[7]; [17],10
same,"Plant response rating, Cocklebur",[7]; [18],45
same,"Plant response rating, Cocklebur",[7]; [19],70
same,Cocklebur plant response rating,[7]; [20],80
same,"Plant response rating, Lambsquarters",[8]; [11],95
same,Lambsquarters plant response rating (0 to 100 scale),[8]; [15],95
same,"Plant response rating, Lambsquarters",[8]; [16],95
same,"Plant response rating, Lambsquarters",[8]; [14],98
same,"Plant response rating, Lambsquarters",[8]; [17],98
same,"Plant response rating, Lambsquarters",[8]; [18],98
same,"Plant response rating, Lambsquarters",[8]; [19],98
same,Lambsquarters plant response rating,[8]; [20],100
same,"Plant response rating, Oat, Wild",wild oat (Avena fatua); [11],20
same,"Oat, Wild plant response rating (0 to 100 scale)",wild oat (Avena fatua); [15],20
same,"Plant response rating, Oat, Wild",wild oat (Avena fatua); [16],60
same,"Plant response rating, Oat, Wild",wild oat (Avena fatua); [14],80
same,"Plant response rating, Oat, Wild",wild oat (Avena fatua); [17],0
same,"Plant response rating, Oat, Wild",wild oat (Avena fatua); [18],0
same,"Plant response rating, Oat, Wild",wild oat (Avena fatua); [19],5
same,"Oat, Wild plant response rating",wild oat (Avena fatua); [20],5
same,"Plant response rating, Velvetleaf",[9]; [11],98
same,Velvetleaf plant response rating (0 to 100 scale),[9]; [15],100
same,"Plant response rating, Velvetleaf",[9]; [16],100
same,"Plant response rating, Velvetleaf",[9]; [14],100
same,"Plant response rating, Velvetleaf",[9]; [17],98
same,"Plant response rating, Velvetleaf",[9]; [18],100
same,"Plant response rating, Velvetleaf",[9]; [19],100
same,Velvetleaf plant response rating,[9]; [20],100
same,"Plant response rating, Pigweed",[10]; [11],90
same,Pigweed plant response rating (0 to 100 scale),[10]; [15],98
same,"Plant response rating, Pigweed",[10]; [16],100
same,"Plant response rating, Pigweed",[10]; [14],100
same,"Plant response rating, Pigweed",[10]; [17],98
same,"Plant response rating, Pigweed",[10]; [18],98
same,"Plant response rating, Pigweed",[10]; [19],100
same,Pigweed plant response rating,[10]; [20],100
same,"Plant response rating, Soybean",soybean (Glycine max); [11],75
same,Soybean plant response rating (0 to 100 scale),soybean (Glycine max); [12],75
same,"Plant response rating, Soybean",soybean (Glycine max); [16],95
same,"Plant response rating, Soybean",soybean (Glycine max); [14],95
